“And” between values parts separate entries of the source, which are not always exact repeats. Identical values can stand only once.
Tests used:
Format in all cases: biochemical
TMPRSS2 = TMPRSS2 (Homo sapiens, UniProt O15393); assay: PS-SCL / HyCoSuL substrate specificity screening, TMPRSS2; conditions: for P2 Position Substrate Activity for TMPRSS2 (percent substrate cleavage/proteolysis): residue fixed at P2 position of substrate library; for P3 Position Substrate Activity for TMPRSS2 (percent substrate cleavage/proteolysis) / P3 Position Various Amino Acids Substrate Activity, TMPRSS2 (percent substrate cleavage/proteolysis): residue fixed at P3 position of substrate library
TMPRSS2, sequence (O15393 whole entry): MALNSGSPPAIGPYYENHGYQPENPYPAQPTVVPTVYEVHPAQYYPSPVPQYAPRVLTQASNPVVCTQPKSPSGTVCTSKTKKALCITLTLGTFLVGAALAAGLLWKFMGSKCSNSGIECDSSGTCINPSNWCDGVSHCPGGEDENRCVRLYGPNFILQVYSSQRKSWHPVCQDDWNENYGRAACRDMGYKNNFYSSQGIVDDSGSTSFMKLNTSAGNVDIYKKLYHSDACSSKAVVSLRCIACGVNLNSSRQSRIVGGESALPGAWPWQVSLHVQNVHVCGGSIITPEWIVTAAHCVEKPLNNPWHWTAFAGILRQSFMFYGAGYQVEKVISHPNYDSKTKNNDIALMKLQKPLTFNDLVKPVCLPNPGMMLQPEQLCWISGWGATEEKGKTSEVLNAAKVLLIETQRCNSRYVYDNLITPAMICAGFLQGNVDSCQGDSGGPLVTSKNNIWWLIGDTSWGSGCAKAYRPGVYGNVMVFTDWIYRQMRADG

matriptase = molecular target: T1, matriptase (Homo sapiens, UniProt Q9Y5Y6); assay: HyCoSuL P4-P2 substrate specificity screening, matriptase; conditions: for P2 Position Substrate Activity for matriptase (percent substrate cleavage/proteolysis): residue fixed at P2 position; for P3 Position Various Amino Acids Substrate Activity, matriptase (percent substrate cleavage/proteolysis): residue fixed at P3 position of substrate library; for P3 Position Substrate Activity for matriptase (percent substrate cleavage/proteolysis): residue fixed at P3 position; for P4 Position Various Amino Acids Substrate Activity, matriptase (percent substrate proteolysis/cleavage): residue fixed at P4 position of substrate library
T1 sequence (Q9Y5Y6 1-855): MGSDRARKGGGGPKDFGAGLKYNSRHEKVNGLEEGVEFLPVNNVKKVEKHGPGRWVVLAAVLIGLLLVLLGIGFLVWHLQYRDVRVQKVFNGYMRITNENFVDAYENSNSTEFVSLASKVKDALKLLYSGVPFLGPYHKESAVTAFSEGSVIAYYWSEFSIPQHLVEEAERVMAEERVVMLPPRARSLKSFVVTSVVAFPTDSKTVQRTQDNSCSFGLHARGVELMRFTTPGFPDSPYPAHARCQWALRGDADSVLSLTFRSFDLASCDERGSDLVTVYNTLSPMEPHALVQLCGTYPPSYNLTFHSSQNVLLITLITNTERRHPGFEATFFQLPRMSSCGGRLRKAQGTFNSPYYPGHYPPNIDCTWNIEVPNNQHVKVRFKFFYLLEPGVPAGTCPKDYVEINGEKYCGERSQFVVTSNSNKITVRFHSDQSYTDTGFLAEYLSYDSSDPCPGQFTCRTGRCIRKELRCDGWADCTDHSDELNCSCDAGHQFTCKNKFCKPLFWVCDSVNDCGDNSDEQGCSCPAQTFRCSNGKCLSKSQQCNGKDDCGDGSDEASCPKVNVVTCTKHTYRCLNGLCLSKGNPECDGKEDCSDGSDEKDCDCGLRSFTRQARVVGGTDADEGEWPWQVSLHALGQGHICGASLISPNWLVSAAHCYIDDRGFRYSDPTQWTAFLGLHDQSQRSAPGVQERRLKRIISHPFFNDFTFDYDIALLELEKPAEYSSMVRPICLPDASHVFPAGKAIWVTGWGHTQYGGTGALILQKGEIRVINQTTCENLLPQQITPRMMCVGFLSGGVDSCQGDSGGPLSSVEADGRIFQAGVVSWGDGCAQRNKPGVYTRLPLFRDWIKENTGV

hepsin = molecular target: T2, hepsin (Homo sapiens, UniProt P05981); assay: HyCoSuL P4-P2 substrate specificity screening, hepsin; conditions: for P2 Position Substrate Activity for hepsin (percent substrate cleavage/proteolysis): residue fixed at P2 position; for P3 Position Substrate Activity for hepsin (percent substrate cleavage/proteolysis): residue fixed at P3 position; for P4 Position Various Amino Acids Substrate Activity, hepsin (percent substrate proteolysis/cleavage): residue fixed at P4 position of substrate library; for P3 Position Various Amino Acids Substrate Activity, hepsin (percent substrate cleavage/proteolysis): residue fixed at P3 position of substrate library
T2 construct: purchased R&D Systems 4776-SE-010
T2 sequence (P05981 163-417 limits assumed): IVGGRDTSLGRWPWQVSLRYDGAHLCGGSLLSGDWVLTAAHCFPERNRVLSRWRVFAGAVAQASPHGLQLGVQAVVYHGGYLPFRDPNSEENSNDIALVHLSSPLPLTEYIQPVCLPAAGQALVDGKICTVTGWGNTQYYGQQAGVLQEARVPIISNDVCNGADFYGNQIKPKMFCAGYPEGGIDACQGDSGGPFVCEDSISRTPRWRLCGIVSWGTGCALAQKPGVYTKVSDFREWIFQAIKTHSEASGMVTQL
T2 sequence (P05981 1-162 partner limits assumed): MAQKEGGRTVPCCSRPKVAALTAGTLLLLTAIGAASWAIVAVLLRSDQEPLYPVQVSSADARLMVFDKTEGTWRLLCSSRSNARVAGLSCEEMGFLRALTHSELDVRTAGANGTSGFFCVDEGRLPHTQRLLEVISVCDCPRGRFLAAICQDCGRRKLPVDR

HGFA = molecular target: T3, HGFA (Homo sapiens, UniProt Q04756); assay: HyCoSuL P4-P2 substrate specificity screening, HGFA; conditions: for P2 Position Substrate Activity for HGFA (percent substrate cleavage/proteolysis): residue fixed at P2 position; for P3 Position Substrate Activity for HGFA (percent substrate cleavage/proteolysis): residue fixed at P3 position; for P4 Position Various Amino Acids Substrate Activity, HGFA (percent substrate proteolysis/cleavage): residue fixed at P4 position of substrate library; for P3 Position Various Amino Acids Substrate Activity, HGFA (percent substrate cleavage/proteolysis): residue fixed at P3 position of substrate library
T3 sequence (Q04756 373-655): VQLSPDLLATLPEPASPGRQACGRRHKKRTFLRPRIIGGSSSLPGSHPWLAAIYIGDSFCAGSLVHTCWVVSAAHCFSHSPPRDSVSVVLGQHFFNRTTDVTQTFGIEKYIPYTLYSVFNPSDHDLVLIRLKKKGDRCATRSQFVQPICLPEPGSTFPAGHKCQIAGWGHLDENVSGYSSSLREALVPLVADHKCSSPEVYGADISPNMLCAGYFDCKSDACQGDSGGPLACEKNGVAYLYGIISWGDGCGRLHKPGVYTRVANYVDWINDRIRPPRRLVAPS

[1] = best recognized amino acid set to 100%
[2] = residue fixed at P4 position of substrate library
[3] = P1-Arg HyCoSuL, 100 μM, best recognized amino acid set to 100%
[4] = residue fixed at P4 position, P1-Arg HyCoSuL, 100 μM, best recognized amino acid set to 100%

Substance | P2 Position Substrate Activity for TMPRSS2 (percent substrate cleavage/proteolysis) (TMPRSS2; [1]) | P3 Position Substrate Activity for TMPRSS2 (percent substrate cleavage/proteolysis) (TMPRSS2; [1]) | P4 Position Various Amino Acids Substrate Activity, TMPRSS2 (percent substrate proteolysis/cleavage) (TMPRSS2; [2]) | P2 Position Substrate Activity for matriptase (percent substrate cleavage/proteolysis) (matriptase; [3]) | P3 Position Various Amino Acids Substrate Activity, matriptase (percent substrate cleavage/proteolysis) (matriptase) | P3 Position Substrate Activity for matriptase (percent substrate cleavage/proteolysis) (matriptase; [3]) | P4 Position Various Amino Acids Substrate Activity, matriptase (percent substrate proteolysis/cleavage) (matriptase) | P2 Position Substrate Activity for hepsin (percent substrate cleavage/proteolysis) (hepsin; [3]) | P3 Position Substrate Activity for hepsin (percent substrate cleavage/proteolysis) (hepsin; [3]) | P4 Position Various Amino Acids Substrate Activity, hepsin (percent substrate proteolysis/cleavage) (hepsin) | P2 Position Substrate Activity for HGFA (percent substrate cleavage/proteolysis) (HGFA; [3]) | P3 Position Substrate Activity for HGFA (percent substrate cleavage/proteolysis) (HGFA; [3]) | P4 Position Various Amino Acids Substrate Activity, HGFA (percent substrate proteolysis/cleavage) (HGFA) | P3 Position Various Amino Acids Substrate Activity, TMPRSS2 (percent substrate cleavage/proteolysis) (TMPRSS2) | P3 Position Various Amino Acids Substrate Activity, hepsin (percent substrate cleavage/proteolysis) (hepsin) | P3 Position Various Amino Acids Substrate Activity, HGFA (percent substrate cleavage/proteolysis) (HGFA) | P4 Position Substrate Activity for TMPRSS2 (percent substrate cleavage/proteolysis) (TMPRSS2; residue fixed at P4 position of substrate library, best recognized amino acid set to 100%) | P4 Position Substrate Activity for matriptase (percent substrate cleavage/proteolysis) (matriptase; [4]) | P4 Position Substrate Activity for hepsin (percent substrate cleavage/proteolysis) (hepsin; [4]) | P4 Position Substrate Activity for HGFA (percent substrate cleavage/proteolysis) (HGFA; [4])
L-Met(O) | 0.00% | 57.41% | 24.40% | 1% | 52% | 51.68% | 10% | 11.40% | 68.16% | 22.86% | 1.68% | 16.63% | 6.64% |  |  |  |  |  |  | 
L-Nle | 11.80% |  | 56.06% | 13% | 34% |  | 34% | 62.04% |  | 40.93% | 45.52% |  | 11.76% | 38.11% | 24.09% | 19.15% |  |  |  | 
L-Nva | 13.88% |  | 54.45% | 11% | 25% |  | 30% | 58.40% |  | 41.99% | 39.80% |  | 11.78% | 38.62% | 25.85% | 17.60% |  |  |  | 
L-Orn | 0.00% | 22.76% |  | 4% | 74% | 73.75% and 62.39% | 82% | 78.48% | 79.70% |  | 0.00% | 54.04% |  |  |  |  | 12.33% | 82.42% | 84.52% | 20.23%
L-Phe | 95.60% |  | 31.64% | 39% | 19% |  | 14% | 25.22% |  | 30.80% | 16.60% |  | 9.42% | 14.74% | 2.91% | 13.51% |  |  |  | 
L-Pro | 16.87% |  | 40.11% | 22% | 2% |  | 40% | 13.10% |  | 56.00% | 2.21% |  | 10.30% | 0.00% | 2.09% | 2.04% |  |  |  | 
L-Ser | 19.86% |  | 20.12% | 28% | 33% |  | 19% | 18.40% |  | 31.63% | 3.24% |  | 7.04% | 35.95% | 38.70% | 14.57% |  |  |  | 
